Test results published in ChEMBL document CHEMBL1157158, “Synthesis and neuropharmacological evaluation of 2-aryl- and alkylapomorphines” (Bioorg Med Chem, 2008).

How the values were obtained:
D(2) dopamine receptor = D(2) dopamine receptor (Rattus norvegicus, UniProt P61169); experiment: Displacement of [3H]spiperone from rat dopamine D2 receptor in brain striatal membrane; format: cell membranes
Mus musculus [1] = experiment: Dopaminergic activity in CD1 mouse striatum assessed as dopamine turn over at 3.29 umol/kg, sc relative to control; format: functional
Mus musculus [2] = experiment: Dopaminergic activity in CD1 mouse tuberculum olfactorium assessed as dopamine turn over at 3.29 umol/kg, sc relative to control; format: functional
D(3) dopamine receptor = D(3) dopamine receptor (Rattus norvegicus, UniProt P19020); experiment: biochemical
Sequence of D(3) dopamine receptor (P19020 whole entry): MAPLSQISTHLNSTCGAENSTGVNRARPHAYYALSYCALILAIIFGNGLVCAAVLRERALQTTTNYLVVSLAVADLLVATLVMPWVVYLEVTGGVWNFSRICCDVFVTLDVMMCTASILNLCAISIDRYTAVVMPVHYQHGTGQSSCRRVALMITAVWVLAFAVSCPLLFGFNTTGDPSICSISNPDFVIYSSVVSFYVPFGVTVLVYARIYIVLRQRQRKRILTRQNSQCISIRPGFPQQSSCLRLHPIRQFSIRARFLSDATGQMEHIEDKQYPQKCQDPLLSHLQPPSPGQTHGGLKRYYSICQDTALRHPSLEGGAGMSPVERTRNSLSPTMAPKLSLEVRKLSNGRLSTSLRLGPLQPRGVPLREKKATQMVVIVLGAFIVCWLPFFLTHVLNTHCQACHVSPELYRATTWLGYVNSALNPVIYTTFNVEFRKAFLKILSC
Description: Displacement of [3H]spiperone from rat recombinant dopamine D3 receptor expressed in SF9 cells

Sequence of D(2) dopamine receptor (P61169 whole entry): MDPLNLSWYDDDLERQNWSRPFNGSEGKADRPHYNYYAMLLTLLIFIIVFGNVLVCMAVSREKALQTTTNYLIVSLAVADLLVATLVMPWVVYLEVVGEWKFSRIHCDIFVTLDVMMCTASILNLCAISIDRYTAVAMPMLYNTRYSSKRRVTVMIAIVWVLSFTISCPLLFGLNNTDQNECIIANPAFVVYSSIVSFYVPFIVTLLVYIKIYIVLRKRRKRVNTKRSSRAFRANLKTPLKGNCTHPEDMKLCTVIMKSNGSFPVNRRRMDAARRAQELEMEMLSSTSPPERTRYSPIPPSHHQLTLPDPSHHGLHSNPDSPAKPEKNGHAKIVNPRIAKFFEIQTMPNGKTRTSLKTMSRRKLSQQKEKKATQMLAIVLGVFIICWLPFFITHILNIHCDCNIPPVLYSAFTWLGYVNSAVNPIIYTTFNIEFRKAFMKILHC

| SMILES | IC50 (D(2) dopamine receptor) | Ki (D(2) dopamine receptor) | Activity (Mus musculus [1]) | Activity (Mus musculus [2]) | IC50 (D(3) dopamine receptor) | Ki (D(3) dopamine receptor) |
| --- | --- | --- | --- | --- | --- | --- |
| CN(C)c1ccc(-c2cc3c4c(c2)-c2c(ccc(O)c2O)C[C@H]4N(C)CC3)cc1.Cl.Cl | 484 nM | 242 nM | 52.3% | 84.5% | 178 nM | 78.4 nM |
| CN1CCc2cc(-c3ccccc3)cc3c2[C@H]1Cc1ccc(O)c(O)c1-3.Cl | 23.3 nM | 11.7 nM | 44.2% | 50.9% | 14.7 nM | 7.7 nM |
| CN1CCc2cc(-c3ccc(O)cc3)cc3c2[C@H]1Cc1ccc(O)c(O)c1-3.Cl | 8.5 nM | 4.14 nM | 43.6% | 39.6% | 3.7 nM | 1.78 nM |
| CN1CCc2cc(-c3cccc4c3oc3ccccc34)cc3c2[C@H]1Cc1ccc(O)c(O)c1-3.Cl | 3260 nM | 1630 nM | 92% | 106.1% | 49.4 nM | 22.3 nM |
| Cc1cc2c3c(c1)-c1c(ccc(O)c1O)C[C@H]3N(C)CC2.Cl | 43 nM | 20.7 nM | 42.3% | 43.6% | 82.6 nM | 40.1 nM |
| CN1CCc2cccc3c2[C@H]1Cc1ccc(O)c(O)c1-3.CN1CCc2cccc3c2[C@H]1Cc1ccc(O)c(O)c1-3.Cl.Cl.O [APOMORPHINE HYDROCHLORIDE] |  |  | 48.6% | 57.7% |  |  |
